Assay results from article PMC6934184, “Selective DNA-PKcs inhibition extends the therapeutic index of localized radiotherapy and chemotherapy” (The Journal of Clinical Investigation, 2019).

Target: T1, AKT2 (PKB beta) (Homo sapiens, UniProt P31751)
T1 construct: purchased Thermo Fisher Scientific (Life Technologies) SelectScreen
Test: SelectScreen Z'LYTE
Format: biochemical
Summary of the method: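 NU5455 was profiled across the SelectScreen Broad panel of kinase activity and binding assays. Z'LYTE reactions such as CSF1R ran at apparent Km ATP, while the Adapta CAMK1 assay used ATP listed as 10. Values are given as percent.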

T1 sequence (P31751 whole entry): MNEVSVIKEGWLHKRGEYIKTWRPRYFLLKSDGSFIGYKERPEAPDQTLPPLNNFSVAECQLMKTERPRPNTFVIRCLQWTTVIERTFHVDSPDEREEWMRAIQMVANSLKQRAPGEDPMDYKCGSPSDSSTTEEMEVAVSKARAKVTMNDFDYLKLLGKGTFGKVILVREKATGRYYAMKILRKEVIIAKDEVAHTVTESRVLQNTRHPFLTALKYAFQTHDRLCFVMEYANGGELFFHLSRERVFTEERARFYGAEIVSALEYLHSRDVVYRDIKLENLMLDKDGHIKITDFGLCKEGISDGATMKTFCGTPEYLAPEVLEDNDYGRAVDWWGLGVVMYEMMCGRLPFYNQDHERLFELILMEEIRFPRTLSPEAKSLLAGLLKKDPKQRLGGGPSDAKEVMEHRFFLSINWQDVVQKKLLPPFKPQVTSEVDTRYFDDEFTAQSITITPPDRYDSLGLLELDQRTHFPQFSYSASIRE

CN(C(=O)CN1CCOCC1)c1ccc2sc3c(-c4cccc5c(=O)cc(N6CC7CCC(C6)O7)oc45)cccc3c2c1 [NU5455]
inhibition at 1 µM: 0%
